Measurements as given in the NIST ThermoML archive (doi:10.1021/je060088h).

Details: Liquid, flow method with low res time

CC(O)COC(C)(C)C (stereo unspecified) [1-(1,1-dimethylethoxy)-2-propanol]
Details | Critical pressure [kPa] | Critical temperature [K] | vapor or sublimation pressure [kPa]
– | 2720 | 600.7 | –
450.5 K | – | – | 200.9
472.9 K | – | – | 337.8
510.2 K | – | – | 689.5
553.3 K | – | – | 1380
592.7 K | – | – | 2414
597.5 K | – | – | 2586
598.5 K | – | – | 2668

CCCCCCCCCCCCS [1-dodecanethiol]
Details | Critical pressure [kPa] | Critical temperature [K] | vapor or sublimation pressure [kPa]
– | 1810 | 733.7 | –
544.5 K | – | – | 89.98
577.8 K | – | – | 178.6
614.7 K | – | – | 348.2
659.9 K | – | – | 694.3
688.6 K | – | – | 1039
712.4 K | – | – | 1384
729.8 K | – | – | 1726

CSc1ccccc1 [1-phenyl-1-thiaethane]
Details | Critical pressure [kPa] | Critical temperature [K] | vapor or sublimation pressure [kPa]
– | 4050 | 705.9 | –
463.7 K | – | – | 90.87
492.1 K | – | – | 177.3
526.3 K | – | – | 354.1
566.1 K | – | – | 696.4
613.6 K | – | – | 1383
671.1 K | – | – | 2765
691.7 K | – | – | 3454
699.9 K | – | – | 3799
704.3 K | – | – | 3964

OCCc1ccccc1 [2-phenylethanol]
Details | Critical pressure [kPa] | Critical temperature [K] | vapor or sublimation pressure [kPa]
– | 3990 | 723.5 | –
488.7 K | – | – | 91.7
515.5 K | – | – | 174.9
547.5 K | – | – | 340.6
587.4 K | – | – | 692.9
634.4 K | – | – | 1382
689.8 K | – | – | 2762
711.2 K | – | – | 3451
719.2 K | – | – | 3793
722.5 K | – | – | 3966

C=CCO [2-propenol]
Details | Critical pressure [kPa] | Critical temperature [K] | vapor or sublimation pressure [kPa]
– | 5640 | 547.1 | –
438.1 K | – | – | 759.8
465.2 K | – | – | 1383
498.5 K | – | – | 2595
531.5 K | – | – | 4482
545.4 K | – | – | 5516
546.5 K | – | – | 5599

c1ccc2ccccc2c1 [naphthalene]
Details | Critical pressure [kPa] | Critical temperature [K] | vapor or sublimation pressure [kPa]
– | 4130 | 750 | –
502.2 K | – | – | 128.9
552.2 K | – | – | 337.8
646.6 K | – | – | 1338
731.8 K | – | – | 3445
741.5 K | – | – | 3793
745.9 K | – | – | 3958

CCCCCCCCCCCCCCCCCCCCCCCCCCCCCC [triacontane]
Details | vapor or sublimation pressure [kPa]
713.5 K | 82.32
737.8 K | 127.8
761.2 K | 190.2
786 K | 282.4
809.6 K | 414.1
